Results taken from patent US20060047114A1, “Azabicyclic amine histamine-3 receptor antagonists” (Pfizer Inc, priority 2004, published 2006).

Molecular target: T1, rat histamine H3 receptors (Rattus norvegicus, UniProt Q9QYN8)
T1 construct: Frozen rat frontal brain or frozen human post-mortem frontal brain is homogenized; from tissue; host or cells: rat frontal brain membranes
Assay: Rat H3 binding (3H-N-methylhistamine displacement, frontal brain membranes)
Conditions: radioligand 1 nM 3H-N-methylhistamine, 1-hour incubation, read-out: Rat H3 activity (Kj)
Experimental: The in vitro affinity of the compounds in the present invention at the rat or human histamine H3 receptors can be determined according to the following procedure. Frozen rat frontal brain or frozen human post-mortem frontal brain is homogenized in 20 volumes of cold 50 mM Tris HCl containing 2 mM MgCl2 (pH to 7.4 at 4° C.). The homogenate is then centrifuged at 45,000 G for 10 minutes. The supernatant is decanted and the membrane pellet re-suspended by Polytron in cold 50 mM Tris HCl containing 2 mM MgCl2 (pH to 7.4 at 4 degrees C.) and centrifuged again. The final pellet is re-suspended in 50 mM Tris HCl containing 2 mM MgCl2 (pH to 7.4 at 25 degrees C.) at a concentration of 12 mg/mL. Dilutions of compounds are made in 10% DMSO/50 mM Tris buffer (pH 7.4) (at 10× final concentration, so that the final DMSO concentration is 1%). Incubations are initiated by the addition of membranes (200 microliters) to 96 well V-bottom polypropylene plates containing 25 microliters of drug dilutions and 25 microliters of radioligand (1 nM final concentration ^3H-N-methylhistamine). After a 1-hour incubation, assay samples are rapidly filtered through Whatman GF/B filters and rinsed with ice-cold 50 mM Tris buffer (pH 7.4) using a Skatron cell harvester. Radioactivity is quantified using a BetaPlate scintillation counter.

T1 sequence (Q9QYN8 whole entry): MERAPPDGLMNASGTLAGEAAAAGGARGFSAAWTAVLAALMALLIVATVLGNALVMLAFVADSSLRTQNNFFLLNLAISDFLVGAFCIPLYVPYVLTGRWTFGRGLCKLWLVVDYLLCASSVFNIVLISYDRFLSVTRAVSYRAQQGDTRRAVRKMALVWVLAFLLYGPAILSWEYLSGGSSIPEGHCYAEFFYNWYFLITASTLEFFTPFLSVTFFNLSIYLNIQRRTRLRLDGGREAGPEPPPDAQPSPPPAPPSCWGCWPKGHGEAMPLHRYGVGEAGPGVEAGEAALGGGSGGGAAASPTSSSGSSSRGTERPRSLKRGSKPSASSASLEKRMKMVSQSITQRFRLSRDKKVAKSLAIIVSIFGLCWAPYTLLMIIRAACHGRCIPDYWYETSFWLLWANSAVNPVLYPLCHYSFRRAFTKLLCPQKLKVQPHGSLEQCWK

Row | Ki [nM] | SMILES
1 | 51 | c1ccc(Oc2cccc(CN3C[C@@H]4[C@@H](COCCCN5CCCCC5)[C@@H]4C3)c2)cc1 [Example 14, (1S,5R,6R)-3-(3-phenoxybenzyl)-6-(3-piperidin-1-ylpropoxymethyl)-3-azabicyclo[3.1.0]hexane]
2 | 58 | O=C1NCCN1c1ccc(CN2C[C@@H]3[C@@H](COCCCN4CCCCC4)[C@@H]3C2)cc1 [Example 51, 1-{4-[(1R,5S,6R)-6-(3-piperidin-1-ylpropoxymethyl)-3-azabicyclo[3.1.0]hex-3-ylmethyl]-phenyl}-imidazolidin-2-one]
3 | 45 | CC(=O)Nc1ccc(CN2C[C@@H]3[C@@H](COCCCN4CCCCC4)[C@@H]3C2)cc1 [Example 49, N-{4-[(1R,5S,6R)-6-(3-piperidin-1-ylpropoxymethyl)-3-azabicyclo[3.1.0]hex-3-ylmethyl]-phenyl}-acetamide]
4 | 78 | c1ccc(CCN2C[C@@H]3[C@@H](COCCCN4CCCCC4)[C@@H]3C2)cc1 [Example 3, (1S,5R,6R)-3-Phenethyl-6-(3-piperidin-1-ylpropoxymethyl)-3-azabicyclo[3.1.0]-hexane]
5 | 32 | c1ccc(-c2ccc(CN3C[C@@H]4[C@@H](COCCCN5CCCCC5)[C@@H]4C3)cc2)cc1 [Example 17, (1S,5R,6R)-3-biphenyl-4-ylmethyl-6-(3-piperidin-1-ylpropoxymethyl)-3-azabicyclo[3.1.0]hexane]
6 | 51 | c1ccc(Oc2ccc(CN3C[C@@H]4[C@@H](COCCCN5CCCCC5)[C@@H]4C3)cc2)cc1 [Example 30, (1S,5R,6R)-3-(4-phenoxybenzyl)-6-(3-piperidin-1-ylpropoxymethyl)-3-azabicyclo[3.1.0]hexane]
7 | 63 | c1cncc(-c2ccc(CN3C[C@@H]4[C@@H](COCCCN5CCCCC5)[C@@H]4C3)cc2)c1 [Example 67, (1R,5S,6R)-6-(3-piperidin-1-ylpropoxymethyl)-3-(4-pyridin-3-ylbenzyl)-3-azabicyclo[3.1.0]hexane]
8 | 53 | FC(F)C(F)(F)Oc1ccc(CN2C[C@@H]3[C@@H](COCCCN4CCCCC4)[C@@H]3C2)cc1 [Example 69, (1R,5S,6R)-6-(3-piperidin-1-ylpropoxymethyl)-3-[4-(1,1,2,2-tetrafluoroethoxy)-benzyl]-3-azabicyclo[3.1.0]hexane]
9 | 116 | CC(=O)c1ccc(CN2C[C@@H]3[C@@H](COCCCN4CCCCC4)[C@@H]3C2)cc1 [Example 2, (1S,5R,6R)-1-{4-[6-(3-Piperidin-1-ylpropoxymethyl)-3-azabicyclo[3.1.0]hex-3-ylmethyl]-phenyl}-ethanone]
10 | 43 | Fc1ccc(Oc2ccc(CN3C[C@@H]4[C@@H](COCCCN5CCCCC5)[C@@H]4C3)cc2)cc1 [Example 47, (1R,5S,6R)-3-[4-(4-fluorophenoxy)-benzyl]-6-(3-piperidin-1-ylpropoxymethyl)-3-azabicyclo[3.1.0]hexane]
11 | 41 | c1ccc(COc2cccc(CN3C[C@@H]4[C@@H](COCCCN5CCCCC5)[C@@H]4C3)c2)cc1 [Example 15, (1S,5R,6R)-3-(3-benzyloxybenzyl)-6-(3-piperidin-1-ylpropoxymethyl)-3-azabicyclo[3.1.0]hexane]
12 | 30 | COc1ccc(-c2ccc(CN3C[C@@H]4[C@@H](COCCCN5CCCCC5)[C@@H]4C3)cc2)cc1 [Example 57, (1R,5S,6R)-3-(4′-methoxybiphenyl-4-ylmethyl)-6-(3-piperidin-1-ylpropoxymethyl)-3-azabicyclo[3.1.0]hexane]
13 | 86 | c1ccc(CN2C[C@@H]3[C@@H](COCCCN4CCCCC4)[C@@H]3C2)cc1 [Int. 3, (1S,5R,6R)-3-Benzyl-6-(3-piperidin-1-ylpropoxymethyl)-3-azabicyclo[3.1.0]hexane]

Row | SMILES | Ki [nM]
14 | CC(C)COc1ccc(CN2C[C@@H]3[C@@H](COCCCN4CCCCC4)[C@@H]3C2)cc1 [Example 70, (1R,5S,6R)-3-(4-isobutoxybenzyl)-6-(3-piperidin-1-ylpropoxymethyl)-3-azabicyclo[3.1.0]hexane] | 69
